Entries after “also recorded” stand apart in the source; their conditions may differ. Read-outs that look alike come from different tables or passages of the source. Where a SMILES comes first, the peptide text is derived from it. [ ]: non-standard residue; d: D form. The star is where a group is joined. Gly(1-amidinopiperidin-4-yl) = N=C(N)N1CCC([C@H](N)C(=O)O)CC1; Gly(piperidin-4-yl) = N[C@H](C(=O)O)C1CCNCC1; NMeR = CN[C@@H](CCCNC(=N)N)C(=O)O; Tle = CC(C)(C)[C@H](N)C(=O)O; X1 = O=S(=O)(CCOCCOCCF)CC*
Columns and labels:
NTSR1 [1] = target: T1, NTSR1 (Homo sapiens, UniProt P30989); assay: in vivo distribution profile of SR-CP-05 derivatives (FIG. 13)
T1 construct: from tissue; host or cells: NTSR1-positive tumour in vivo
T1 sequence (P30989 whole entry): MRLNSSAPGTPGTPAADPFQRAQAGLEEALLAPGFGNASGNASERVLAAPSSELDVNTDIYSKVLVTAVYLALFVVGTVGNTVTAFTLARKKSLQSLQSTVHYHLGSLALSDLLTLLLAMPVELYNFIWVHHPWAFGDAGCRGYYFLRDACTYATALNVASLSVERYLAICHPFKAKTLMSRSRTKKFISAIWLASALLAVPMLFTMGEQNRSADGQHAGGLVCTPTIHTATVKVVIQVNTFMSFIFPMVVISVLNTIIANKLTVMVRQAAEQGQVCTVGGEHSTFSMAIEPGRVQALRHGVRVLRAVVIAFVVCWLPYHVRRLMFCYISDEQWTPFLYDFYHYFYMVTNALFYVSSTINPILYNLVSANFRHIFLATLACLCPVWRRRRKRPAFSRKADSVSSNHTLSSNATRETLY

tumor = system: tumor
Excerpt: Copper-64 (t1/2=12.7 hr) decays by β+ (20%) and β− emission (37%), as well as electron capture (43%), making it well suited for radiolabeling proteins, antibodies and peptides, for both PET imaging (β+) and therapy (β+ and β−). Limitations to the chelating agents currently used with ^64Cu include significant loss of ^64Cu from the conjugate, leading to high uptake in the liver. In order to overcome this limitation, a new class of bifunctional chelators (BFCs) based on the hexaazamacrobicyclic sarcophagine cage SarAr (1-N-(4-aminobenzyl)-3,6,10,13,16,19-hexaazabicyclo[6.6.6]-eicosane-1,8-diamine) was synthesized. These ligands coordinate metal ions such as Cu^2+ within the multiple macrocyclic rings comprising the Sar cage structure, yielding extraordinarily stable complexes that are inert to dissociation of the metal ion. The functionalization approach of Sar cage was improved through a direct alkylation (SN2) reaction.
However, the kidneys have much higher tracer uptake compared with liver, while the pattern was reversed on PET imaging (Cu-64 falls off DOTA and leads to high liver uptake).

PC3 tumor = assay: microPET imaging and biodistribution of 18F labeled NTS peptide agent in PC3 tumor-bearing nude mice; type: in vivo
Protocol: (§1) The arrow indicates tumor. […]
(§2) Stabilized NTS peptide derivatives and constructed NTSR1 PET agents have been developed. A stabilized NTS analog with a Cys for ^18F labeling (Cys-NTSmut: Cys-pipGly-Pro-pipAmGly-Arg-Pro-Tyr-tBuGly-Leu-OH) was designed. […] Biodistribution studies were performed at 3 hr post injection, showing the tumor to muscle, liver, and kidney ratios at 19.4±5.5, 15.6±4.1, and 3.0±0.3, respectively. […] Despite the high contrast, its tumor retention is low.
(§3) Robust ^18F-labeling methods for facile preparation of ^18F-NTS agents based on NT peptide derivatives were developed. As one of the commonly used PET radioisotopes, ^18F can be easily produced in high quantities on a medical cyclotron with an ideal half-life of 110 min for imaging applications. The half-life of ^18F is sufficient to allow synthesis, transportation, and imaging procedures to be extended over several hours, while the patient is subjected to a limited amount of radiation exposure. A platform technology based on vinyl sulfone and TTCO ligation was developed, both of which are highly efficient for ^18F PET probe construction. After establishing efficient ^18F labeling methods, a stabilized NTS analog was designed with a Cys for ^18F labeling (Cys-NTSmut: Cys-pipGly-Pro-pipAmGly-Arg-Pro-Tyr-tBuGly-Leu-OH). Both ^18F-VS and TTCO ligation have been used to construct ^18F labeled PET agents targeting NTSR1.

[2] = as above; type: in vivo; conditions: male, athymic nude, mouse, PC3 tumor model; for tissue to tissue ratio at 3 h: biodistribution at 3 hr post injection
Protocol: as §1, §2, §3

[3] = side by side comparison of 64Cu labeled SR-CP-05 with NT peptide analogs and 3BP-227 (FIG. 8), tumor uptake and contrast; type: in vivo; conditions: tumor; for tissue uptake: mouse, NT peptide analogs, read-out: absolute tumor uptake value; for tissue uptake at 1 hr: FIG. 8 side by side comparison, 1 hr post injection
Excerpt: (§4) The NTSR1 targeted imaging agent was constructed based on NTS peptide derivatives. Although high tumor-to-background contrast could be obtained, the absolute tumor uptake was moderate with fast clearance from the subject. Moreover, these NTSR1 binding peptides are generally agonists of NTSR1, which may promote tumor progress at high concentration. This may not be a concern for PET imaging due to the limited amount, but it could be a potential risk in treatment. Antagonistic SR142948A based agents were developed, the lead agent being 3BP-227. Side by side comparisons between the lead agent SR-CP-05 and previously reported agents were performed. […] Importantly, SR-CP-05 maintained >15% ID/g tumor uptake at 48 hr post injection. In contrast, the tumor uptake of 3BP-227 decreased to 2.3% ID/g at 24 hr post injection. The unique distribution profile of SR-CP-05 can provide an imaging and radionuclide-based therapy agent targeting NTSR1.
(§5) SR-CP-05 was discovered to be well suited for therapy applications. […] Clearly, the fast clearance may be acceptable from an imaging point of view, but these ligands are not suited for therapeutic applications. […] Importantly, high contrast (tumor/background >20) was obtained at 1 hr post injection and the washout was minimal even after 48 hr post injection. […] Clearly, SR-CP-05 represents a highly promising ligand for both imaging and therapy applications.
(§6) Solution 1) The discovery of a new NTSR1 ligand SR-CP-05 for targeted imaging and therapy. The introduction of crosslinked polyamines into SR142948A (leading to the new agent, SR-CP-05) could increase the tumor uptake by 10 times compared with peptide based agents. Although the tumor to muscle contrast was reduced somewhat right after injection, the ratio is still >20 at 1 hr post injection. More importantly, the agent stayed within the tumor for up to 48 hr, making it useful for therapeutic applications as well. Side by side comparisons were made between SR-CP-05 and previously reported agents. […] Importantly, high contrast (tumor/muscle >20) was also obtained for SR-CP-05 at 1 hr post injection and the washout is minimal after 48 hr post injection (compared with tumor/muscle >3 at 1 hr post injection for 3BP-227). […] The unique distribution profile of SR-CP-05 provides an imaging and radionuclide-based therapy targeting NTSR1.

NTSR1 [4] = target: T1, NTSR1; assay: as above; type: in vivo
Excerpt: as §4, §5, §6

[5] = PC3 tumor model, biodistribution at 3 hr post injection

## COc1cccc(OC)c1-c1cc(C(=O)NC2(C(=O)O)C3CC4CC(C3)CC2C4)nn1-c1ccc(C(=O)N(C)CCCN(C)C(=O)CN2CCCN3CCN(CCCN(CC(=O)O)CC3)CC2)cc1C(C)C (centres unmarked) [SR-CP-18]
NTSR1 [1]; 24 hr time point, FIG. 13
  distribution: mainly showed tumor accumulation; also recorded: high contrast
NTSR1 [1]; in vivo
  tumor uptake relative to SR-CP-05: less than half of SR-CP-05

## CC[N+]1=C(/C=C/C=C/C=C2/N(CCCCCC(=O)NCCCC[C@H](NC(=O)CN3CCN(CC(=O)O)CCN(CC(=O)O)CCN(CC(=O)O)CC3)C(=O)NCCCCCC(=O)N[C@@H](CC(=O)O)C(=O)NCC(=O)N[C@@H](CCC(=O)O)C(=O)NC(C)C(=O)O)c3ccc4c(S(=O)(=O)O)cc(S(=O)(=O)O)cc4c3C2(C)C)C(C)(C)c2c1ccc1c(S(=O)(=O)[O-])cc(S(=O)(=O)O)cc21 (some centres unmarked) [DOTA-K(Cy5.5)-Ahx-DGEA]
tumor
  in vivo distribution pattern: discrepancy between optical and PET imaging
tumor; in vivo
  ex vivo distribution pattern: discrepancy between optical and PET imaging

## CC(C)C[C@H](NC(=O)[C@@H](NC(=O)[C@H](Cc1ccc(O)cc1)NC(=O)[C@@H]1CCCN1C(=O)[C@H](CCCNC(=N)N)NC(=O)[C@@H](NC(=O)[C@@H]1CCCN1C(=O)[C@@H](NC(=O)[C@@H](N)CSCCS(=O)(=O)CCOCCOCCF)C1CCNCC1)C1CCN(C(=N)N)CC1)C(C)(C)C)C(=O)O [^18F-VS-Cys-NTSmut] (H-C(X1)[Gly(piperidin-4-yl)]P[Gly(1-amidinopiperidin-4-yl)]RPY[Tle]L-OH; N-terminus assumed)
PC3 tumor; PC3 tumor model
  background in major tissues/organs, including blood, muscle, liver and kidneys: low background
  clearance from mice: cleared out from mice within a few hours
  tumor retention: low
  tumor uptake: 1.3±0.1 % ID/g
PC3 tumor; [5]
  tumor/kidney ratio: 3.0±0.3
  tumor/liver ratio: 15.6±4.1
  tumor/muscle ratio: 19.4±5.5
PC3 tumor; PC3 tumor, blocking with cold NTS peptide, listed as 18F-DEG-VS-NTS
  tumor uptake in the presence of cold NTS peptide (receptor specificity): successfully blocked; also recorded: efficiently blocked
[2]; tumor and kidney, read-out: tumor/kidney ratio
  tissue to tissue ratio at 3 h: 3 ± 0.3
[2]; tumor and liver, read-out: tumor/liver ratio
  tissue to tissue ratio at 3 h: 15.6 ± 4.1
[2]; tumor and muscle, read-out: tumor/muscle ratio
  tissue to tissue ratio at 3 h: 19.4 ± 5.5
[2]
  tissue uptake: 1.3 %ID/g

## CC(C)C[C@H](NC(=O)[C@@H](NC(=O)[C@H](Cc1ccc(O)cc1)NC(=O)[C@@H]1CCCN1C(=O)[C@H](CCCNC(=N)N)NC(=O)[C@@H](NC(=O)[C@@H]1CCCN1C(=O)[C@@H](N)C1CCNCC1)C1CCN(C(=N)N)CC1)C(C)(C)C)C(=O)O [NTSmut, reference compound] (H-[Gly(piperidin-4-yl)]P[Gly(1-amidinopiperidin-4-yl)]RPY[Tle]L-OH; N-terminus and C-terminus assumed)
[3]
  tissue uptake: ~1.5 %ID/g

## CC(=O)N[C@@H](CCCCN)C(=O)N1CCC[C@H]1C(=O)N(C)[C@@H](CCCNC(=N)N)C(=O)N[C@@H](CCCNC(=N)N)C(=O)N1CCC[C@H]1C(=O)N[C@@H](Cc1ccc(O)cc1)C(=O)N[C@H](C(=O)N[C@@H](CC(C)C)C(=O)O)C(C)(C)C [NTS20.3, reference compound] (Ac-KP[NMeR]RPY[Tle]L-OH; N-terminus and C-terminus assumed)
[3]
  tissue uptake: ~1.5 %ID/g

## CNC(=O)c1ccc(-n2nc(C(=O)NC3(C(=O)O)C4CC5CC(C4)CC3C5)cc2-c2c(OC)cccc2OC)c(C(C)C)c1 (centres unmarked) [SR-CP-05]
NTSR1 [1]; in vivo
  liver uptake: still relatively high
[3]; 24 hr post injection
  tissue uptake at 24 hr: > 15 %ID/g
[3]; 48 hr post injection
  tissue uptake at 48 hr: > 15 %ID/g
[3]
  tissue uptake at 1 hr: 15.5 %ID/g
[3]; other: injection (kind of injection not stated)
  tissue uptake at 1 hr: 15.6 %ID/g
[3]; other: injection
  tissue uptake at 1 hr: 15.6 %ID/g
NTSR1 [4]; 64Cu labeled, FIG. 8
  overall side by side comparison: outperforms both NT peptide analogs and other agents based on SR142948A
NTSR1 [4]; 1 hr post injection
  tumor/background contrast: > 20
  tumor/muscle ratio: > 20
NTSR1 [4]; FIG. 8 side by side comparison, 1 hr post injection
  tumor uptake: > 15 % ID/g
NTSR1 [4]; after 48 hr (two days) post injection
  tumor washout: only a minimal amount of tumor wash out
NTSR1 [4]; in vivo
  time the agent stayed within the tumor: up to 48 hr
  tumor uptake: both high and persistent tumor uptake
NTSR1 [4]; side by side comparison
  tumor uptake higher than 3BP-227: 75%
